Results: patent US11590139B2, “Substituted aminopurine compounds, compositions thereof, and methods of treatment therewith” (Signal Pharmaceuticals, LLC, priority 2014, dated 2023)

System: Lox-IMVI melanoma cell line
Test: Lox-IMVI anti-proliferative assay (growth inhibition, Cell Titer-Glo)
Format: cell-based, human
Conditions: Homo sapiens; IC50 activity level in the cell-based Lox-IMVI anti-proliferative assay; read-out: Activity
Outline: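 Viability read by ATP luminescence (Cell Titer-Glo) at t0 and after 72 h at 37 °C, 5% CO2, with normalisation to DMSO-treated cells. Compound tested at 0.5 nM–10 μM in 3-fold, 10-point series (0.2% DMSO final) on Lox-IMVI in RPMI+10% FBS; IC50 by 4-parameter sigmoidal fit.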

| IC50 [nM] | SMILES |
| --- | --- |
| > 1000 | CS(=O)(=O)N1CCC(Nc2ncc3nc(Nc4ccc(Cl)c(F)c4F)n([C@H]4CC[C@@H](C(N)=O)CC4)c3n2)CC1 [Example 298, (1s,4s)-4-(8-(4-chloro-2,3-difluorophenylamino)-2-(1-(methylsulfonyl)piperidin-4-ylamino)-9H-purin-9-yl)cyclohexanecarboxamide] |
| > 1000 | CS(=O)(=O)N1CCC(Nc2ncc3nc(Nc4c(F)cc(Cl)cc4F)n([C@H]4CC[C@@H](C(N)=O)CC4)c3n2)CC1 [Example 295, (1s,4s)-4-(8-(4-chloro-2,6-difluorophenylamino)-2-(1-(methylsulfonyl)piperidin-4-ylamino)-9H-purin-9-yl)cyclohexanecarboxamide] |
| > 1000 | NC(=O)[C@H]1CC[C@@H](n2c(Nc3c(F)ccc(Cl)c3F)nc3cnc(N[C@@H]4CC[C@@H](O)C4)nc32)CC1 [Example 217, (1S,4s)-4-(8-(3-chloro-2,6-difluorophenylamino)-2-((1R,3R)-3-hydroxycyclopentylamino)-9H-purin-9-yl)cyclohexanecarboxamide] |
| > 1000 | NC(=O)[C@H]1CC[C@@H](n2c(Nc3c(Cl)cccc3Cl)nc3cnc(N[C@H]4C[C@H](O)C4)nc32)CC1 [Example 280, (1s,4s)-4-(8-(2,6-dichlorophenylamino)-2-((1r,3r)-3-hydroxycyclobutylamino)-9H-purin-9-yl)cyclohexanecarboxamide] |
| 500 to 1000 | Cc1cc(F)c(Nc2nc3cnc(NC4CCOCC4)nc3n2[C@H]2CC[C@@H](C(N)=O)CC2)c(F)c1 [Example 115, (1s,4s)-4-(8-(2,6-difluoro-4-methylphenylamino)-2-(tetrahydro-2H-pyran-4-ylamino)-9H-purin-9-yl)cyclohexanecarboxamide] |
| > 1000 | NC(=O)[C@H]1CC[C@@H](n2c(Nc3c(F)cc(F)cc3F)nc3cnc(N[C@H]4COC[C@@H]4O)nc32)CC1 [Example 311, (1R,4s)-4-(2-((3S,4R)-4-hydroxytetrahydrofuran-3-ylamino)-8-(2,4,6-trifluorophenylamino)-9H-purin-9-yl)cyclohexanecarboxamide] |
| 500 to 1000 | NC(=O)[C@H]1CC[C@@H](n2c(Nc3ccc(Cl)c(F)c3F)nc3cnc(NC4CCC(F)(F)CC4)nc32)CC1 [Example 290, (1s,4s)-4-(8-(4-chloro-2,3-difluorophenylamino)-2-(4,4-difluorocyclohexylamino)-9H-purin-9-yl)cyclohexanecarboxamide] |
| > 1000 | CC1(C)CC[C@@H](Nc2ncc3nc(Nc4c(F)cccc4F)n([C@H]4CC[C@@H](C(N)=O)CC4)c3n2)C[C@H]1O [Example 382, (1S,4s)-4-(8-(2,6-difluorophenylamino)-2-((1R,3R)-3-hydroxy-4,4-dimethylcyclohexylamino)-9H-purin-9-yl)cyclohexanecarboxamide] |

Same assay, conditions: Homo sapiens; Lox-IMVI anti-proliferative assay, IC50 activity level; read-out: Activity

| SMILES | IC50 [nM] |
| --- | --- |
| C[C@@H]1COCC[C@@H]1Nc1ncc2nc(Nc3c(F)cc(F)cc3F)n([C@H]3CC[C@@H](C(N)=O)CC3)c2n1 [Example 511, (1R,4s)-4-(2-((3S,4S)-3-methyltetrahydro-2H-pyran-4-ylamino)-8-(2,4,6-trifluorophenylamino)-9H-purin-9-yl)cyclohexanecarboxamide] | 500 to 1000 |
| CC(C)Nc1ncc2nc(Nc3c(F)cc(C#N)cc3Cl)n([C@H]3CC[C@@H](C(N)=O)CC3)c2n1 [Example 430, (1s,4s)-4-(8-(2-chloro-4-cyano-6-fluorophenylamino)-2-(isopropylamino)-9H-purin-9-yl)cyclohexanecarboxamide] | 500 to 1000 |
| NC(=O)[C@H]1CC[C@@H](n2c(Nc3ccc(Cl)c(F)c3F)nc3cnc(N[C@@H]4CCCC[C@H](O)C4)nc32)CC1 [Example 440, (1S,4s)-4-(8-(4-chloro-2,3-difluorophenylamino)-2-((1R,3S)-3-hydroxycycloheptylamino)-9H-purin-9-yl)cyclohexanecarboxamide] | > 1000 |

Second part, the compound after the results:

| IC50 [nM] | SMILES |
| --- | --- |
| > 1000 | C[C@]1(C(N)=O)CC[C@H](n2c(Nc3c(Cl)cc(F)cc3Cl)nc3cnc(NC4CCCC4)nc32)CC1 [Example 493, (1r,4r)-4-(2-(cyclopentylamino)-8-(2,6-dichloro-4-fluorophenylamino)-9H-purin-9-yl)-1-methylcyclohexanecarboxamide] |
| 500 to 1000 | NC(=O)[C@H]1CC[C@@H](n2c(Nc3c(Cl)cc(Cl)cc3Cl)nc3cnc(N[C@@H]4CCC[C@@H](O)C4)nc32)CC1 [Example 415, (1S,4s)-4-(2-((1R,3R)-3-hydroxycyclohexylamino)-8-(2,4,6-trichlorophenylamino)-9H-purin-9-yl)cyclohexanecarboxamide] |
| < 250 | C[C@@H](CO)Nc1ncc2nc(Nc3c(Cl)cc(Cl)cc3Cl)n([C@H]3CC[C@@](C)(C(N)=O)CC3)c2n1 [Example 549, (1R,4s)-4-(2-((S)-1-hydroxypropan-2-ylamino)-8-(2,4,6-trichlorophenylamino)-9H-purin-9-yl)-1-methylcyclohexanecarboxamide] |
| > 1000 | NC(=O)[C@H]1CC[C@@H](n2c(Nc3c(Cl)cccc3Cl)nc3cnc(N[C@@H]4CCCC[C@H](O)C4)nc32)CC1 [Example 435, (1S,4s)-4-(8-(2,6-dichlorophenylamino)-2-((1R,3S)-3-hydroxycycloheptylamino)-9H-purin-9-yl)cyclohexanecarboxamide] |

Same assay, conditions: Homo sapiens; Lox-IMVI melanoma cell line, anti-proliferative assay; read-out: Activity (IC50 activity level)

| SMILES | IC50 [nM] |
| --- | --- |
| NC(=O)[C@H]1CC[C@@H](n2c(Nc3c(F)cc(Cl)cc3F)nc3cnc(N[C@@H]4CCCN(c5ccccc5)C4)nc32)CC1 [Example 747, (1S,4s)-4-(8-(4-chloro-2,6-difluorophenylamino)-2-((R)-1-phenylpiperidin-3-ylamino)-9H-purin-9-yl)cyclohexanecarboxamide] | > 1000 |
| N#Cc1cc(Cl)c(Nc2nc3cnc(N[C@H]4CCOC[C@H]4F)nc3n2[C@H]2CC[C@@H](C(N)=O)CC2)c(Cl)c1 [Example 765, (1R,4s)-4-(8-(2,6-dichloro-4-cyanophenylamino)-2-((3S,4S)-3-fluorotetrahydro-2H-pyran-4-ylamino)-9H-purin-9-yl)cyclohexanecarboxamide] | < 250 |

Other lines, results leading:

| IC50 [nM] | SMILES |
| --- | --- |
| 500 to 1000 | NC(=O)[C@H]1CC[C@@H](n2c(Nc3c(Cl)cc(Br)cc3Cl)nc3cnc(NC4CCC(F)(F)CC4)nc32)CC1 [Example 691, (1s,4s)-4-(8-(4-bromo-2,6-dichlorophenylamino)-2-(4,4-difluorocyclohexylamino)-9H-purin-9-yl)cyclohexanecarboxamide] |
| < 250 | C[C@@H]1COCC[C@H]1Nc1ncc2nc(Nc3c(Cl)cc(Cl)cc3Cl)n([C@H]3CC[C@@](C)(C(N)=O)CC3)c2n1 [Example 727, (1S,4s)-1-methyl-4-(2-((3S,4R)-3-methyltetrahydro-2H-pyran-4-ylamino)-8-(2,4,6-trichlorophenylamino)-9H-purin-9-yl)cyclohexanecarboxamide] |
| < 250 | C[C@]1(C(N)=O)CC[C@@H](n2c(Nc3c(F)cc(Cl)cc3Cl)nc3cnc(N[C@@H]4CCOC[C@H]4F)nc32)CC1 [Example 726, (1S,4s)-4-(8-(2,4-dichloro-6-fluorophenylamino)-2-((3S,4R)-3-fluorotetrahydro-2H-pyran-4-ylamino)-9H-purin-9-yl)-1-methylcyclohexanecarboxamide] |
| > 1000 | CC(C)OC(=O)N1CCC[C@@H](Nc2ncc3nc(Nc4c(Cl)cc(F)cc4Cl)n([C@H]4CC[C@@H](C(N)=O)CC4)c3n2)C1 [Example 775, (R)-isopropyl 3-(9-((1s,4S)-4-carbamoylcyclohexyl)-8-(2,6-dichloro-4-fluorophenylamino)-9H-purin-2-ylamino)piperidine-1-carboxylate] |
